Experimental data as given in ChEMBL document CHEMBL2057160, “Experimental and 'in silico' analysis of the effect of pH on HIV-1 protease inhibitor affinity: implications for the charge state of the protein ionogenic groups” (Bioorg Med Chem, 2012).

Tests used:
[1] = biological target: T1, Protease (Human immunodeficiency virus 1, UniProt Q9YQ12); test: Binding affinity to Human immunodeficiency virus 1 protease by SPR biosensor interaction analysis at pH 7.4
[2] = biological target: T1, Protease; test: Binding affinity to Human immunodeficiency virus 1 protease by SPR biosensor interaction analysis at pH 5.1
[3] = biological target: T1, Protease; test: Binding affinity to Human immunodeficiency virus 1 protease by SPR biosensor interaction analysis at pH 4.1

T1 sequence (Q9YQ12 whole entry): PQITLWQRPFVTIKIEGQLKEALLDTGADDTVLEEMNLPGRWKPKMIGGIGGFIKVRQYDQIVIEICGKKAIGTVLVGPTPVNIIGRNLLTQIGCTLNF

SMILES	Kd [1]	Kd [2]	Kd [3]
O=C(N[C@H]1c2ccccc2C[C@H]1O)[C@H](OCc1ccccc1)[C@H](O)[C@@H](O)[C@@H](OCc1ccccc1)C(=O)N[C@H]1c2ccccc2C[C@H]1O	13.9 nM	1 nM	1.14 nM
O=C1N(Cc2ccc(CO)cc2)[C@H](COc2ccccc2)[C@H](O)[C@@H](O)[C@@H](COc2ccccc2)N1Cc1ccc(CO)cc1	6.95 nM	1.84 nM	1.83 nM
CNC(=O)[C@@H](NC(=O)[C@H](OCc1ccccc1)[C@H](O)[C@@H](O)[C@@H](OCc1ccccc1)C(=O)N[C@H](C(=O)NC)C(C)C)C(C)C	10.8 nM	3 nM	2.97 nM
CC(=O)N[C@H](C(=O)N[C@H](C(=O)N[C@@H](CC(C)C)[C@@H](O)CC(=O)N[C@@H](C)C(=O)N[C@@H](CC(C)C)[C@@H](O)CC(=O)O)C(C)C)C(C)C [ACETYLPEPSTATIN]	8150 nM	759 nM	208 nM
Cc1c(O)cccc1C(=O)N[C@@H](CSc1ccccc1)[C@H](O)CN1C[C@H]2CCCC[C@H]2C[C@H]1C(=O)NC(C)(C)C	3.4 nM	2.99 nM	37.6 nM
